{"source": "patent US8597875B2", "about": "“Method for diagnosing liver toxicity with sex specific biomarkers” (BASF SE, priority 2008, dated 2013)", "key": {"[1]": {"system": "male rats", "experiment": "Plasma metabolite profiling (GC-MS/LC-MS) for liver toxicity markers, 28-day gavage study, male rats", "format": "in vivo, rat", "conditions": "Table 3, male rats", "method": "(§1) A group of each 5 male and female rats was dosed once daily with the indicated compounds (see tables below) at 10 and 100 mg/kg body weight per gavage over 28 days. Additional groups of each 5 male and female animals served as controls. Before starting the treatment period, animals, which were 62-64 days old when supplied, were acclimatized to the housing and environmental conditions for 7 days. All animals of the animal population were kept under the same constant temperature (20-24±3° C.) and the same constant humidity (30-70%). Each animal of the animal population was kept in a separate cage. The animals of the animal population are fed ad libitum. The food to be used was be essentially free of chemical or microbial contaminants. Drinking water was also offered ad libitum. Accordingly, the water was be free of chemical and microbial contaminants as laid down in the European Drinking Water Directive 98/83/EG. The illumination period was 12 hours light followed by 12 hours darkness (12 hours light, from 6:00 to 18:00, and 12 hours darkness, from 18:00 to 6:00).\n(§2) In the morning of day 7, 14, and 28, blood was taken from the retroorbital venous plexus from fasted anaesthetized animals. From each animal, 1 ml of blood was collected with EDTA as anticoagulant. The samples were be centrifuged for generation of plasma. All plasma samples were covered with a N2 atmosphere and then stored at −80° C. until analysis.\n(§3) For mass spectrometry-based metabolite profiling analyses plasma samples were extracted and a polar and a non-polar fraction was obtained. For GC-MS analysis, the non-polar fraction was treated with methanol under acidic conditions to yield the fatty acid methyl esters. Both fractions were further derivatised with O-methyl-hydroxyamine hydrochloride and pyridine to convert Oxo-groups to O-methyloximes and subsequently with a silylating agent before analysis. In LC-MS analysis, both fractions were reconstituted in appropriate solvent mixtures. HPLC was performed by gradient elution on reversed phase separation columns. For mass spectrometric detection metanomics proprietary technology was applied which allows target and high sensitivity MRM (Multiple Reaction Monitoring) profiling in parallel to a full screen analysis.\n(§4) Following comprehensive analytical validation steps, the data for each analyte were normalized against data from pool samples. These samples were run in parallel through the whole process to account for process variability. The significance of treatment group values specific for sex, dose group and metabolite was determined by comparing means of the treated groups to the means of the respective untreated control groups using WELCH-test. Normalized treatment group values and their significance were fed into a database for further statistics and data mining processes.\n(§5) The changes of the group of plasma metabolites being indicative for liver toxicity after treatment of the rats are shown in the following tables: […]"}, "[2]": {"system": "female rats", "experiment": "Plasma metabolite profiling (GC-MS/LC-MS) for liver toxicity markers, 28-day gavage study, female rats", "format": "in vivo, rat", "conditions": "for Glycerol-3-Phosphate, polar fraction, change of plasma metabolite / Glucose, change of plasma metabolite / Cholesterol, change of plasma metabolite: female rats", "method": "as §1, §2, §3, §4, §5"}, "[3]": {"conditions": "Table 4, female rats, fh7 (day 7)"}, "[4]": {"conditions": "Table 4, female rats, fh14 (day 14)"}, "[5]": {"conditions": "Table 4, female rats, fh28 (day 28)"}}}
{"compound": "CC(=O)Nc1ccc(O)cc1", "note": "[N-Acetyl-p-Aminophenol]", "values": [{"measurement": "4-Hydroxyphenylpyruvic acid, change of plasma metabolite", "setting": "[1]; mh7 (day 7)", "value": 3.04}, {"measurement": "18:1 Lyso PC, change of plasma metabolite", "setting": "[1]; mh7 (day 7)", "value": 1.02}, {"measurement": "Glycerol-3-Phosphate, polar fraction, change of plasma metabolite", "setting": "[1]; mh7 (day 7)", "value": 1.41}, {"measurement": "alpha-Tocopherol, change of plasma metabolite", "setting": "[1]; mh7 (day 7)", "value": 1.21}, {"measurement": "4-Hydroxyphenylpyruvic acid, change of plasma metabolite", "setting": "[1]; mh14 (day 14)", "value": 4.89}, {"measurement": "4-Hydroxysphinganine, change of plasma metabolite", "setting": "[1]; mh14 (day 14)", "value": 1.61}, {"measurement": "18:1 Lyso PC, change of plasma metabolite", "setting": "[1]; mh14 (day 14)", "value": 1.16}, {"measurement": "Glycerol-3-Phosphate, polar fraction, change of plasma metabolite", "setting": "[1]; mh14 (day 14)", "value": 1.54}, {"measurement": "Phosphatidylcholine No 01, change of plasma metabolite", "setting": "[1]; mh14 (day 14)", "value": 1.21}, {"measurement": "Behenic acid (C22:0), change of plasma metabolite", "setting": "[2]; [3]", "value": 1.11}, {"measurement": "Coenzyme Q9, change of plasma metabolite", "setting": "[2]; [3]", "value": 2.21}, {"measurement": "Eicosatrienoic acid No 01, change of plasma metabolite", "setting": "[2]; [3]", "value": 1.15}, {"measurement": "Glycerol, lipid fraction, change of plasma metabolite", "setting": "[2]; [3]", "value": 1.54}, {"measurement": "Glycerolphosphate, lipid fraction, change of plasma metabolite", "setting": "[2]; [3]", "value": 1.13}, {"measurement": "Heptadecanoic acid (C17:0), change of plasma metabolite", "setting": "[2]; [3]", "value": 1.31}, {"measurement": "Linoleic acid (C18:cis[9,12]2), change of plasma metabolite", "setting": "[2]; [3]", "value": 1.43}, {"measurement": "Nervonic acid (C24:1), change of plasma metabolite", "setting": "[2]; [3]", "value": 1.19}, {"measurement": "Palmitic acid (C16:0), change of plasma metabolite", "setting": "[2]; [3]", "value": 1.16}, {"measurement": "Phosphatidylcholine No 01, change of plasma metabolite", "setting": "[2]; [3]", "value": 1.30}, {"measurement": "Sphingolipids (5-Methoxysphingosine), change of plasma metabolite", "setting": "[2]; [3]", "value": 1.31}, {"measurement": "Sphingolipids (erythro-Sphingosine), change of plasma metabolite", "setting": "[2]; [3]", "value": 1.11}, {"measurement": "14-Methylhexadecanoic acid, change of plasma metabolite", "setting": "[2]; [4]", "value": 1.20}, {"measurement": "Behenic acid (C22:0), change of plasma metabolite", "setting": "[2]; [4]", "value": 1.39}, {"measurement": "Coenzyme Q9, change of plasma metabolite", "setting": "[2]; [4]", "value": 1.39}, {"measurement": "DAG (C18:1, C18:2), change of plasma metabolite", "setting": "[2]; [4]", "value": 1.63}, {"measurement": "Eicosatrienoic acid No 01, change of plasma metabolite", "setting": "[2]; [4]", "value": 1.91}, {"measurement": "Glycerol, lipid fraction, change of plasma metabolite", "setting": "[2]; [4]", "value": 1.56}, {"measurement": "Heptadecanoic acid (C17:0), change of plasma metabolite", "setting": "[2]; [4]", "value": 1.34}, {"measurement": "Linoleic acid (C18:cis[9,12]2), change of plasma metabolite", "setting": "[2]; [4]", "value": 1.82}, {"measurement": "Nervonic acid (C24:1), change of plasma metabolite", "setting": "[2]; [4]", "value": 1.35}, {"measurement": "Palmitic acid (C16:0), change of plasma metabolite", "setting": "[2]; [4]", "value": 1.50}, {"measurement": "Phosphatidylcholine No 01, change of plasma metabolite", "setting": "[2]; [4]", "value": 1.34}, {"measurement": "Sphingolipids (5-Methoxysphingosine), change of plasma metabolite", "setting": "[2]; [4]", "value": 1.41}, {"measurement": "Sphingolipids (erythro-Sphingosine), change of plasma metabolite", "setting": "[2]; [4]", "value": 1.29}, {"measurement": "TAG No 01, change of plasma metabolite", "setting": "[2]; [4]", "value": 2.93}, {"measurement": "14-Methylhexadecanoic acid, change of plasma metabolite", "setting": "[2]; [5]", "value": 1.68}, {"measurement": "Coenzyme Q9, change of plasma metabolite", "setting": "[2]; [5]", "value": 1.19}, {"measurement": "DAG (C18:1, C18:2), change of plasma metabolite", "setting": "[2]; [5]", "value": 1.86}, {"measurement": "Eicosanoic acid (C20:0), change of plasma metabolite", "setting": "[2]; [5]", "value": 1.73}, {"measurement": "Eicosatrienoic acid No 01, change of plasma metabolite", "setting": "[2]; [5]", "value": 2.08}, {"measurement": "Glycerol, lipid fraction, change of plasma metabolite", "setting": "[2]; [5]", "value": 2.04}, {"measurement": "Glycerolphosphate, lipid fraction, change of plasma metabolite", "setting": "[2]; [5]", "value": 1.82}, {"measurement": "Heptadecanoic acid (C17:0), change of plasma metabolite", "setting": "[2]; [5]", "value": 1.64}, {"measurement": "Linoleic acid (C18:cis[9,12]2), change of plasma metabolite", "setting": "[2]; [5]", "value": 2.68}, {"measurement": "Palmitic acid (C16:0), change of plasma metabolite", "setting": "[2]; [5]", "value": 2.03}, {"measurement": "TAG No 01, change of plasma metabolite", "setting": "[2]; [5]", "value": 3.85}, {"measurement": "Glycerol-3-Phosphate, polar fraction, change of plasma metabolite", "setting": "[2]; Table 4, first listing (r8), fh7 (day 7)", "value": 1.68}, {"measurement": "Glycerol-3-Phosphate, polar fraction, change of plasma metabolite", "setting": "[2]; Table 4, first listing (r8), fh14 (day 14)", "value": 1.18}, {"measurement": "Glucose, change of plasma metabolite", "setting": "[2]; Table 4, first listing (r10), fh7 (day 7)", "value": 1.25}, {"measurement": "Glucose, change of plasma metabolite", "setting": "[2]; Table 4, first listing (r10), fh28 (day 28)", "value": 1.17}, {"measurement": "Cholesterol, change of plasma metabolite", "setting": "[2]; Table 4, first listing (r14), fh28 (day 28)", "value": 1.41}, {"measurement": "Cholesterol, change of plasma metabolite", "setting": "[2]; Table 4, second listing (r26), fh7 (day 7)", "value": 1.21}, {"measurement": "Cholesterol, change of plasma metabolite", "setting": "[2]; Table 4, second listing (r26), fh14 (day 14)", "value": 1.42}, {"measurement": "Cholesterol, change of plasma metabolite", "setting": "[2]; Table 4, second listing (r26), fh28 (day 28)", "value": 1.74}, {"measurement": "Glucose, change of plasma metabolite", "setting": "[2]; Table 4, second listing (r27), fh28 (day 28)", "value": 1.04}, {"measurement": "Glycerol-3-Phosphate, polar fraction, change of plasma metabolite", "setting": "[2]; Table 4, second listing (r28), fh7 (day 7)", "value": 1.93}, {"measurement": "Glycerol-3-Phosphate, polar fraction, change of plasma metabolite", "setting": "[2]; Table 4, second listing (r28), fh14 (day 14)", "value": 1.35}, {"measurement": "Glycerol-3-Phosphate, polar fraction, change of plasma metabolite", "setting": "[2]; Table 4, second listing (r28), fh28 (day 28)", "value": 1.20}]}
